Source: US9540691B2, “Assays and methods for selecting a treatment regimen for a subject with depression” (THE GENERAL HOSPITAL CORPORATION, priority 2011, dated 2017)
Like-named read-outs stand apart in the source and are kept apart here.

System: MDD patients carrying the indicated conditions
Details: Phase I, with SSRI
Description: Folate levels are classified as either low (<=2.5 ng/ml) or normal; and homocysteine levels as either normal or elevated (>=[…]). The presence or absence of at least one […] allele for the MTHFR gene are entered as a dichotomous variable (present or absent). […] Using folate as an example predicator, the presence or absence of a low serum-folate level along with treatment assignment can be entered in a 2×2, factorial ANOVA, using depression improvement scores (baseline minus endpoint HAM-D-17 scores) as the dependant variable. […] Similar analyses (i.e. separate 2×2 ANOVA's) can be performed substituting the presence of low folate levels for the presence of other predictors as described herein. Similarly, the effect of other predictors can be indicated by the interaction term representing the potential modulating influence of those variables.
Particularly, specific genetic and biomarkers that were assessed include the following: • (a) BMI calculation of at least about 30 kg/m^2; • (b) an expression ratio of SAM/SAH smaller than 2.8 (e.g., 2.71) as measured in a plasma sample; • (c) a level of 4-HNE no less than 3.28 μg/mL (as measured in a plasma sample); • (d) presence of rare variants CT or TT at position 677 of SEQ ID NO: 1 corresponding to a portion of a genomic nucleic acid sequence of methylenetetrahydrofolate reductase (MTHFR) (abbreviated as “MTHFR 677” below); • (e) presence of rare variants AG or GG at position 2756 of SEQ ID NO: 2 corresponding to a portion of genomic nucleic acid sequence of methionine synthase (MTR) (abbreviated as “MTR 2756” below); and • (f) presence of rare variants AG or GG at position 66 of SEQ ID NO: 3 corresponding to a portion of genomic nucleic acid sequence of methionine synthase reductase (MTRR) (abbreviated as “MTRR 66” below).
The efficacy effect is determined by measuring the mean change in the HAMD-17 score and HAMD-28 score by the end of Phase I and Phase II, as compared to the baseline.

CN1c2c(nc(N)[nH]c2=O)NC[C@@H]1CNc1ccc(C(=O)N[C@@H](CCC(=O)O)C(=O)O)cc1 [6(S)-5-MTHF, 6(S)-5-methyltetrahydrofolate]
Effect, change in HAMD-17 score (25 =< BMI < 30 kg/m^2 (18, 10)): 2.600 | Effect, change in HAMD-28 score (25 =< BMI < 30 kg/m^2 (18, 10)): 2.602 | Effect, change in HAMD-17 score (BMI < 25 (14, 7)): 1.576 | Effect, change in HAMD-28 score (BMI < 25 (14, 7)): 0.909 | Effect, change in HAMD-17 score (BMI < 30 kg/m^2 and HNE-His < median (19, 9)): 3.771 | Effect, change in HAMD-28 score (BMI < 30 kg/m^2 and HNE-His < median): 4.606 | Effect, change in HAMD-17 score (BMI < 30 kg/m^2 and SAM/SAH >= median (16,8)): 4.333 | Effect, change in HAMD-28 score (BMI < 30 kg/m^2 and SAM/SAH >= median): 4.333 | Effect, change in HAMD-17 score (BMI >= 30 kg/m^2 (40,21)): −6.414 | Effect, change in HAMD-28 score (BMI >= 30 kg/m^2 (40,21)): −6.677 | Effect, change in HAMD-17 score (BMI >= 30 kg/m^2 and HNE-His >= median (23, 11)): −6.569 | Effect, change in HAMD-28 score (BMI >= 30 kg/m^2 and HNE-His >= median): −6.510 | Effect, change in HAMD-17 score (BMI >= 30 kg/m^2 and SAM/SAH < median (21,9)): −5.611 | Effect, change in HAMD-28 score (BMI >= 30 kg/m^2 and SAM/SAH < median = 2.71 (plasma sample)): −6.306 | Effect, change in HAMD-17 score (MTHFR 677 CC and BMI < 30 kg/m^2 (17,8)): 4.500 | Effect, change in HAMD-28 score (MTHFR 677 CC and BMI < 30 kg/m^2): 2.769 | Effect, change in HAMD-17 score (MTHFR 677 CC and HNE-His < median (20,11)): −1.471 | Effect, change in HAMD-28 score (MTHFR 677 CC and HNE-His < median = 3.28 (plasma sample)): −2.821 | Effect, change in HAMD-17 score (MTHFR 677 CC and MTR 2756 AA (29,13)): −0.700 | Effect, change in HAMD-28 score (MTHFR 677 CC and MTR 2756 AA): −0.192 | Effect, change in HAMD-17 score (MTHFR 677 CT or TT and BMI >= 30 kg/m^2 (13,6)): −8.738 | Effect, change in HAMD-28 score (MTHFR 677 CT or TT and BMI >= 30 kg/m^2): −9.857 | Effect, change in HAMD-17 score (MTHFR 677 CT or TT and HNE-His >= median (11,6)): −7.143 | Effect, change in HAMD-28 score (MTHFR 677 CT or TT and HNE-His >= median): −6.929 | Effect, change in HAMD-17 score (MTHFR 677 CT or TT and MTR 2756 AG or GG (8,4)): −13.47 | Effect, change in HAMD-28 score (MTHFR 677 CT or TT and MTR 2756 AG or GG): −18.00 | Effect, change in HAMD-17 score (MTR 2756 AA (45,21)): −0.621 | Effect, change in HAMD-17 score (MTR 2756 AA and BMI < 30 kg/m^2 (17,7)): 4.476 | Effect, change in HAMD-28 score (MTR 2756 AA and BMI < 30 kg/m^2): 5.524 | Effect, change in HAMD-17 score (MTR 2756 AA and HNE-His < median (26,13)): 0.306 | Effect, change in HAMD-28 score (MTR 2756 AA and HNE-His < median): 0.639 | Effect, change in HAMD-17 score (MTR 2756 AA and MTRR 66 AA (11,5)): 3.125 | Effect, change in HAMD-17 score (MTR 2756 AA and MTRR 66 AA and HNE-His < median (6,4)): 3.000 | Effect, change in HAMD-28 score (MTR 2756 AA and MTRR 66 AA and HNE-His < median = 3.28 (plasma sample)): 4.200 | Effect, change in HAMD-17 score (MTR 2756 AA and MTRR 66 AA and SAM/SAH >= median (6,3)): −0.400 | Effect, change in HAMD-28 score (MTR 2756 AA and MTRR 66 AA and SAM/SAH >= median): −1.000 | Effect, change in HAMD-28 score (MTR 2756 AA and MTRR 66 AA): 5.000 | Effect, change in HAMD-17 score (MTR 2756 AA and SAM/SAH >= median (24,12)): −1.556 | Effect, change in HAMD-28 score (MTR 2756 AA and SAM/SAH >= median): −1.278 | Effect, change in HAMD-28 score (MTR 2756 AA): 0.409 | Effect, change in HAMD-17 score (MTR 2756 AG or GG and BMI >= 30 kg/m^2 (10,5)): −12.905 | Effect, change in HAMD-28 score (MTR 2756 AG or GG and BMI >= 30 kg/m^2): −18.762 | Effect, change in HAMD-17 score (MTR 2756 AG or GG and HNE-His >= median (13,7)): −7.125 | Effect, change in HAMD-28 score (MTR 2756 AG or GG and HNE-His >= median = 3.28 (plasma sample)): −9.950 | Effect, change in HAMD-17 score (MTR 2756 AG or GG and MTRR 66 AG or GG (15,7)): −6.900 | Effect, change in HAMD-17 score (MTR 2756 AG or GG and MTRR 66 AG or GG and BMI >= 30 kg/m^2 (8,4)): −13.667 | Effect, change in HAMD-28 score (MTR 2756 AG or GG and MTRR 66 AG or GG and BMI >= 30 kg/m^2): −18.833 | Effect, change in HAMD-17 score (MTR 2756 AG or GG and MTRR 66 AG or GG and HNE-His >= median (10,4)): −7.200 | Effect, change in HAMD-28 score (MTR 2756 AG or GG and MTRR 66 AG or GG and HNE-His >= median): −9.800 | Effect, change in HAMD-17 score (MTR 2756 AG or GG and MTRR 66 AG or GG and SAM/SAH < median (8,3)): −9.000 | Effect, change in HAMD-28 score (MTR 2756 AG or GG and MTRR 66 AG or GG and SAM/SAH < median = 2.71 (plasma sample)): −12.741 | Effect, change in HAMD-28 score (MTR 2756 AG or GG and MTRR 66 AG or GG): −9.996 | Effect, change in HAMD-17 score (MTR 2756 AG or GG and SAM/SAH < median (10,4)): −9.800 | Effect, change in HAMD-28 score (MTR 2756 AG or GG and SAM/SAH < median = 2.71 (plasma sample)): −14.993 | Effect, change in HAMD-17 score (MTR 2756 AG/GG (20,11)): −7.143 | Effect, change in HAMD-28 score (MTR 2756 AG/GG): −10.926
